How the values were obtained:
[1] = target: T1, wt human TYK2, catalytic site (Homo sapiens, UniProt P29597); assay: HTRF KinEASE assay, TYK2; assay type: biochemical; details: 1 μM ATP; read-out: IC50, inhibitory activity toward TYK2
T1 construct: 2 nM wt human TYK2, catalytic site (SignalChem/CAN); purchased SignalChem/CAN
T1 sequence (P29597 897-1176 limits assumed): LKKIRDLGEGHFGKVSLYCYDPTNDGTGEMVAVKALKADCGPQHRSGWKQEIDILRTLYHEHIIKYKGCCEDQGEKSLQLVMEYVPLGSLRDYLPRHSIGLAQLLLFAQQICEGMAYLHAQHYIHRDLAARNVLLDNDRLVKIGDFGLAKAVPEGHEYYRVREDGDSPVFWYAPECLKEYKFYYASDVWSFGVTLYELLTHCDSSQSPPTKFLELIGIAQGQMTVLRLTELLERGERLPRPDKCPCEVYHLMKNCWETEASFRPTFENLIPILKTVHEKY
Summary of the method: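 2 nM wt human TYK2 catalytic domain with 1 μM biotinylated TK substrate and 1 μM ATP in 1× kinase buffer was incubated ≥30 min at room temperature. Antibody and streptavidin-XL665 were added, and HTRF emission ratios were read after 60 min.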

[2] = target: T2, wt human NUAK1, full length (Homo sapiens, UniProt O60285); assay: TR-FRET LanthaScreen Eu Kinase Binding Assay, NUAK1; details: 5 nM Kinase Tracer 236; read-out: IC50, inhibitory activity toward NUAK1
T2 construct: 8 nM wt human NUAK1, full length (ThermoFisher/USA); purchased ThermoFisher/USA
T2 sequence (O60285 1-661): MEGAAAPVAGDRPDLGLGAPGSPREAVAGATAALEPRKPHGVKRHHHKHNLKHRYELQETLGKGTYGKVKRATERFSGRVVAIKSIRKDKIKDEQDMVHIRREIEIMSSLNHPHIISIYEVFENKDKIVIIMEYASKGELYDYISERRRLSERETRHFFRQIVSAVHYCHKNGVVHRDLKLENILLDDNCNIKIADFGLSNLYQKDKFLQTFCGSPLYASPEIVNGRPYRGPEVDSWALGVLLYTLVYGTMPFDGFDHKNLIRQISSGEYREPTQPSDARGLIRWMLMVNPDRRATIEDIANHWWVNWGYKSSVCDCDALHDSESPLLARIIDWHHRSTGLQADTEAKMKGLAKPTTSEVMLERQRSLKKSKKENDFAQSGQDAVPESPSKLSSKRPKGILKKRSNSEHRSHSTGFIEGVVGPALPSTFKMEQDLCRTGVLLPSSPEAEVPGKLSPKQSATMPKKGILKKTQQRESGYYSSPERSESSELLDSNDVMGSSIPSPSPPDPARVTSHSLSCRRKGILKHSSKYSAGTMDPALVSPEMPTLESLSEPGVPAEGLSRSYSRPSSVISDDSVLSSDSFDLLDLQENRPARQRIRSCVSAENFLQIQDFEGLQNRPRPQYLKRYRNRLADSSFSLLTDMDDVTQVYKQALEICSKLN
Summary of the method: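 TR-FRET tracer-displacement binding with 8 nM full-length wild-type human NUAK1, 2 nM Eu-anti-His antibody and 5 nM Kinase Tracer 236 in 1× Kinase Buffer A (final). Compound, kinase/antibody and tracer incubated 1 h at room temperature; emission ratios analysed per kit protocol.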

Compound | IC50 [1] | IC50 [2]
Cc1cc2c(cc1C(=O)NC1CCOCC1)N=C(c1c(F)cccc1F)Nc1cn[nH]c1-2 [Compound 157, 5-(2,6-difluorophenyl)-9-methyl-N-(tetrahydro-2H-pyran-4-yl)-1,4-dihydrobenzo[d]pyrazolo[3,4-f][1,3]diazepine-8-carboxamide] | < 10 nM | 100 to 1000 nM
Fc1cc2c(cc1OC1CCOCC1)N=C(c1c(F)cccc1C(F)(F)F)Nc1c[nH]nc1-2 [Compound 223, 9-fluoro-5-(2-fluoro-6-(trifluoromethyl)phenyl)-8-((tetrahydro-2H-pyran-4-yl)oxy)-2,4-dihydrobenzo[d]pyrazolo[3,4-f][1,3]diazepine] | 10 to 100 nM | 100 to 1000 nM
O=C(c1ccc2c(c1)N=C(c1c(F)cccc1Cl)Nc1cn[nH]c1-2)N1CCOCC1 [Compound 78, (5-(2-chloro-6-fluorophenyl)-1,4-dihydrobenzo[d]pyrazolo[3,4-f][1,3]diazepin-8-yl)(morpholino)methanone] | 100 to 1000 nM | 100 to 1000 nM
Cc1ccc2c(c1)-c1[nH]ncc1N=C(c1c(F)cc(NCCF)cc1F)N2 [Compound 126, 3,5-difluoro-N-(2-fluoroethyl)-4-(9-methyl-1,6-dihydrobenzo[d]pyrazolo[3,4-f][1,3]diazepin-5-yl)aniline] | 100 to 1000 nM | 10 to 100 nM
Cc1ccc2c(c1)-c1[nH]ncc1N=C(c1c(F)cccc1Cl)N2 [Compound 35, 5-(2-chloro-6-fluorophenyl)-9-methyl-1,6-dihydrobenzo[d]pyrazolo[3,4-f][1,3]diazepine] | 100 to 1000 nM | 10 to 100 nM
Fc1cccc(F)c1C1=Nc2ncccc2-c2[nH]ncc2N1 [Compound 11, 5-(2,6-difluorophenyl)-1,4-dihydropyrazolo[4,3-d]pyrido[3,2-f][1,3]diazepine] | 100 to 1000 nM | 10 to 100 nM
Fc1ccc2c(c1)-c1[nH]ncc1N=C(c1c(F)cc(OC(F)F)cc1F)N2 [Compound 215, 5-(4-(difluoromethoxy)-2,6-difluorophenyl)-9-fluoro-1,6-dihydrobenzo[d]pyrazolo[3,4-f][1,3]diazepine] | 100 to 1000 nM | 10 to 100 nM
Cc1ccc2c(c1)-c1[nH]ncc1NC(c1c(F)cccc1Br)=N2 [Compound 161, 5-(2-bromo-6-fluorophenyl)-9-methyl-1,4-dihydrobenzo[d]pyrazolo[3,4-f][1,3]diazepine] | 100 to 1000 nM | 10 to 100 nM
Fc1ccc(-c2ccc3c(c2)N=C(c2c(F)cccc2F)Nc2c[nH]nc2-3)cc1 [Compound 237, 5-(2,6-difluorophenyl)-8-(4-fluorophenyl)-2,4-dihydrobenzo[d]pyrazolo[3,4-f][1,3]diazepine] | 10 to 100 nM | < 10 nM
Fc1cccc(F)c1C1=Nc2ccccc2-c2[nH]nc(Cl)c2N1 [Compound 135, 3-chloro-5-(2,6-difluorophenyl)-1,4-dihydrobenzo[d]pyrazolo[3,4-f][1,3]diazepine] | 10 to 100 nM | 10 to 100 nM
Fc1cccc(Cl)c1C1=Nc2cc(OC3CCOCC3)ccc2-c2[nH]ncc2N1 [Compound 155, 5-(2-chloro-6-fluorophenyl)-8-((tetrahydro-2H-pyran-4-yl)oxy)-1,4-dihydrobenzo[d]pyrazolo[3,4-f][1,3]diazepine] | 10 to 100 nM | 10 to 100 nM
Fc1cccc(F)c1C1=Nc2ccc(Cl)cc2-c2[nH]ncc2N1 [Compound 25, 9-chloro-5-(2,6-difluorophenyl)-1,4-dihydrobenzo[d]pyrazolo[3,4-f][1,3]diazepine] | 100 to 1000 nM | 10 to 100 nM
O=C(NC1CCOCC1)c1ccc2c(c1)N=C(c1c(F)cccc1F)Nc1cn[nH]c1-2 [Compound 95, 5-(2,6-difluorophenyl)-N-(tetrahydro-2H-pyran-4-yl)-1,4-dihydrobenzo[d]pyrazolo[3,4-f][1,3]diazepine-8-carboxamide] | < 10 nM | 10 to 100 nM
Fc1cccc(Cl)c1C1=Nc2cn[nH]c2-c2cc(OC(F)F)ccc2N1 [Compound 43, 5-(2-chloro-6-fluorophenyl)-9-(difluoromethoxy)-1,6-dihydrobenzo[d]pyrazolo[3,4-f][1,3]diazepine] | 100 to 1000 nM | 10 to 100 nM
Cc1ccc2c(c1)-c1[nH]ncc1NC(c1c(F)ccc(F)c1F)=N2 [Compound 182, 9-methyl-5-(2,3,6-trifluorophenyl)-1,4-dihydrobenzo[d]pyrazolo [3,4-f][1,3]diazepine] | 100 to 1000 nM | 10 to 100 nM
Cc1cnc2c(c1)-c1[nH]ncc1N=C(c1c(F)cccc1F)N2 [Compound 61, 5-(2,6-difluorophenyl)-9-methyl-1,6-dihydropyrazolo[4,3-d]pyrido[3,2-f][1,3]diazepine] | 100 to 1000 nM | 10 to 100 nM
Fc1cccc(F)c1C1=Nc2cn[nH]c2-c2cc3c(cc2N1)OCO3 [Compound 210, 5-(2,6-difluorophenyl)-1,6-dihydro-[1,3]dioxolo[4′,5′:4,5]benzo[1,2-d]pyrazolo[3,4-f][1,3]diazepine] | 10 to 100 nM | 10 to 100 nM
Fc1cccc(F)c1C1=Nc2cnc(OC(F)F)cc2-c2n[nH]cc2N1 [Compound 197, 9-(difluoromethoxy)-5-(2,6-difluorophenyl)-2,4-dihydropyrazolo[4,3-d]pyrido[4,3-f][1,3]diazepine] | 10 to 100 nM | 10 to 100 nM
Fc1cc2c(cc1OC1CCCC1)N=C(c1c(F)cccc1Cl)Nc1c[nH]nc1-2 [Compound 245, 5-(2-chloro-6-fluorophenyl)-8-(cyclopentyloxy)-9-fluoro-2,4-dihydrobenzo[d]pyrazolo[3,4-f][1,3]diazepine] | 10 to 100 nM | 100 to 1000 nM
OCc1ccc2c(c1)-c1[nH]ncc1N=C(c1c(F)cccc1F)N2 [Compound 50, (5-(2,6-difluorophenyl)-1,6-dihydrobenzo[d]pyrazolo[3,4-f][1,3]diazepin-9-yl)methanol] | 100 to 1000 nM | 10 to 100 nM
COC(=O)Nc1ccc2c(c1)-c1[nH]ncc1NC(c1c(F)cccc1F)=N2 [Compound 165, methyl(5-(2,6-difluorophenyl)-1,4-dihydrobenzo[d]pyrazolo[3,4-f][1,3]diazepin-9-yl)carbamate] | 100 to 1000 nM | < 10 nM
CCc1cc(F)c2c(c1)-c1[nH]nc(Cl)c1NC(c1c(F)cccc1F)=N2 [Compound 168, 3-chloro-5-(2,6-difluorophenyl)-9-ethyl-7-fluoro-1,4-dihydrobenzo[d]pyrazolo[3,4-f][1,3]diazepine] | 100 to 1000 nM | 10 to 100 nM
Cc1ccc2c(c1)-c1[nH]nc(Cl)c1NC(c1c(F)cccc1F)=N2 [Compound 143, 3-chloro-5-(2,6-difluorophenyl)-9-methyl-1,4-dihydrobenzo[d]pyrazolo [3,4-f][1,3]diazepine] | 100 to 1000 nM | 10 to 100 nM
Fc1ccccc1-c1ccc2c(c1)N=C(c1c(Cl)cccc1Cl)Nc1c[nH]nc1-2 [Compound 236, 5-(2,6-dichlorophenyl)-8-(2-fluorophenyl)-2,4-dihydrobenzo[d]pyrazolo[3,4-f][1,3]diazepine] | < 10 nM | 100 to 1000 nM
CCNC(=O)c1cc2c(cc1F)-c1n[nH]cc1N=C(c1c(F)cccc1F)N2 [Compound 211, 5-(2,6-difluorophenyl)-N-ethyl-9-fluoro-2,6-dihydrobenzo[d]pyrazolo[3,4-f][1,3]diazepine-8-carboxamide] | 10 to 100 nM | 10 to 100 nM
